Measured values as given in patent publication US20260109707A1, “HETEROBIFUNCTIONAL COMPOUNDS AND METHODS OF TREATING DISEASE” (Halda Therapeutics OpCo. Inc., priority 2022, published 2026).
Where two headings read alike, the source gives them in different places.

Assays:
[1] = test system: T-Rex 293 cell line SC3 cells having increased expression of androgen receptor protein due to exposure to doxycycline; test: Cellular growth inhibition assay, T-Rex 293 SC3 cells with doxycycline (CellTiter-Glo, 72 hours); format: cell-based; conditions: T-Rex 293 SC3 cells with increased androgen receptor expression due to doxycycline (10 ng/mL)
Procedure, shortened: (§1)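 Doxycycline (10 ng/mL) was either included or omitted to toggle wild-type androgen receptor expression in SC3 cells, a T-Rex 293 clone, grown in stripped-serum, phenol red-free medium. After 72 hours with compound, viable cells were quantified by CellTiter-Glo 2.0.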

[2] = test system: T-Rex 293 cell line SC3 cells lacking increased expression of androgen receptor protein; test: Cellular growth inhibition assay, T-Rex 293 SC3 cells without doxycycline (CellTiter-Glo, 72 hours); format: cell-based; conditions: T-Rex 293 cell line SC3 cells not exposed to doxycycline (lacking increased androgen receptor expression)
Procedure, shortened: as §1

[3] = test system: VCaP cells; test: Cellular growth inhibition assay for VCaP cells (CellTiter-Glo, 72 hours); format: cell-based, human
Procedure, shortened: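 Luminescent viability signal after 72 h of compound exposure gave GI50 values by four-parameter nonlinear regression. Compounds were added in 0.5% DMSO to cells plated 24 h earlier at 5000/well in DMEM containing 10% FBS.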

Row | GI50 ([3]; Homo sapiens, VCaP, 72 h) [nM] | GI50 [3] [nM] | Compound | GI50 ([1]; 72 h) [nM] | GI50 ([2]; 72 h) [nM] | GI50 [1] [nM] | GI50 [2] [nM]
1 | < 500 | – | Cc1sc2c(c1C)C(c1ccccc1OC1CCC3(CC1)CCN(c1ccc(C(=O)N[C@H]4CC[C@H](Oc5ccc(C#N)c(Cl)c5)CC4)nn1)C3)=N[C@@H](C)c1nnc(C)n1-2 (stereo partly drawn) [I-752] | < 500 | < 500 | – | –
2 | – | < 500 | Cc1sc2c(c1C)C(c1ccccc1OC1CCC3(CC1)CCN(c1ccc(C(=O)N[C@H]4CC[C@H](Oc5ccc(C#N)c(Cl)c5)CC4)nn1)C3)=N[C@@H](C)c1nnc(C)n1-2 (stereo partly drawn) [I-753] | – | – | < 500 | < 500
3 | > 3000 | – | Cc1sc2c(c1C)C(c1ccccc1CC1CC3(CCCN(c4ccc(C(=O)N[C@H]5CC[C@H](Oc6ccc(C#N)c(Cl)c6)CC5)nn4)C3)C1)=N[C@@H](C)c1nnc(C)n1-2 (stereo partly drawn) [I-754] | > 3000 | > 3000 | – | –
4 | – | 1500 to 3000 | Cc1sc2c(c1C)C(c1ccccc1CC1CC3(CCCN(c4ccc(C(=O)N[C@H]5CC[C@H](Oc6ccc(C#N)c(Cl)c6)CC5)nn4)C3)C1)=N[C@@H](C)c1nnc(C)n1-2 (stereo partly drawn) [I-755] | – | – | > 3000 | > 3000
5 | < 500 | – | Cc1sc2c(c1C)C(c1ccc(C3CCC(CC4CCN(c5ccc(C(=O)N[C@H]6CC[C@H](Oc7ccc(C#N)c(Cl)c7)CC6)nn5)CC4)CC3)cc1)=NC1(CC1)c1nnc(C)n1-2 (stereo partly drawn) [I-756] | < 500 | – | – | > 3000
6 | – | < 500 | Cc1sc2c(c1C)C(c1ccc(C3CCC(CC4CCN(c5ccc(C(=O)N[C@H]6CC[C@H](Oc7ccc(C#N)c(Cl)c7)CC6)nn5)CC4)CC3)cc1)=NC1(CC1)c1nnc(C)n1-2 (stereo partly drawn) [I-757] | – | – | < 500 | < 500
7 | – | > 3000 | Cc1sc2c(c1C)C(c1ccc(C3CCC4(CCN(c5ccc(C(=O)N[C@H]6CC[C@H](Oc7ccc(C#N)c(Cl)c7)CC6)nn5)CC4)C3)cc1)=NC(C(F)(F)F)c1nnc(C)n1-2 (stereo partly drawn) [I-758] | – | – | > 3000 | > 3000
8 | < 500 | – | Cc1sc2c(c1C)C(c1ccc(C3CCC4(CCN(c5ccc(C(=O)N[C@H]6CC[C@H](Oc7ccc(C#N)c(Cl)c7)CC6)nn5)CC4)C3)cc1)=NC(C(F)(F)F)c1nnc(C)n1-2 (stereo partly drawn) [I-759] | – | > 3000 | > 3000 | –
9 | – | < 500 | Cc1sc2c(c1C)C(c1ccc(C3CCC4(CCN(c5ccc(C(=O)N[C@H]6CC[C@H](Oc7ccc(C#N)c(Cl)c7)CC6)nn5)CC4)C3)cc1)=NC(C(F)(F)F)c1nnc(C)n1-2 (stereo partly drawn) [I-760] | – | – | < 500 | > 3000
10 | – | < 500 | Cc1sc2c(c1C)C(c1ccc(C3CCC4(CCN(c5ccc(C(=O)N[C@H]6CC[C@H](Oc7ccc(C#N)c(Cl)c7)CC6)nn5)CC4)C3)cc1)=NC(C(F)(F)F)c1nnc(C)n1-2 (stereo partly drawn) [I-761] | – | – | > 3000 | > 3000
11 | < 500 | – | Cc1sc2c(c1C)C(c1ccc(C3CCC(CC4CCN(c5ccc(C(=O)N[C@H]6CC[C@H](Oc7ccc(C#N)c(Cl)c7)CC6)nn5)CC4)CC3)cc1)=N[C@@H](C)c1nnc(C)n1-2 (stereo partly drawn) [I-764] | < 500 | > 3000 | – | –
12 | – | < 500 | Cc1sc2c(c1C)C(c1ccc(C3CCC(CC4CCN(c5ccc(C(=O)N[C@H]6CC[C@H](Oc7ccc(C#N)c(Cl)c7)CC6)nn5)CC4)CC3)cc1)=N[C@@H](C)c1nnc(C)n1-2 (stereo partly drawn) [I-765] | – | – | < 500 | > 3000
13 | < 500 | – | Cc1sc2c(c1C)C(c1ccc(N3CC45CCCCC4(C3)CN(c3ccc(C(=O)N[C@H]4CC[C@H](Oc6ccc(C#N)c(Cl)c6)CC4)nn3)C5)cc1)=N[C@@H](C)c1nnc(C)n1-2 (stereo partly drawn) [I-766] | < 500 | > 3000 | – | –
14 | – | < 500 | Cc1sc2c(c1C)C(c1ccc(N3CCC4(CC3)CCN(c3ccc(C(=O)N[C@H]5CC[C@H](Oc6ccc(C#N)c(Cl)c6)CC5)nn3)C4)cc1F)=N[C@@H](C)c1nnc(C)n1-2 [I-767] | – | – | < 500 | < 500
15 | < 500 | – | Cc1sc2c(c1C)C(c1ccc(CC3CC4(CCCN(c5ccc(C(=O)N[C@H]6CC[C@H](Oc7ccc(C#N)c(Cl)c7)CC6)nn5)C4)C3)cn1)=NC(Cc1ncco1)c1nnc(C)n1-2 (stereo partly drawn) [I-768] | – | – | < 500 | > 3000
